# Experimental data as given in ChEMBL document CHEMBL1139472, “Synthesis of N-{4-[(2,4-diamino-5-methyl-4,7-dihydro-3H-pyrrolo[2,3-d]pyrimidin-6-yl)thio]benzoyl}-L-glutamic acid and N-{4-[(2-amino-4-oxo-5-methyl-4,7-dihydro-3H-pyrrolo[2,3-d]pyrimidin-6-yl)thio]benzoyl}-L-glutamic acid as dual inhibitors of dihydrofolate reductase and thymidylate synthase and …” (J Med Chem, 2005).
# What was measured:
# CCRF-CEM [1] = assay: cells; settings: Homo sapiens, 120 h
# Dihydrofolate reductase [2] = molecular target: Dihydrofolate reductase (Homo sapiens, UniProt P00374)
# CCRF-CEM [3] = assay: cells; settings: Homo sapiens, 120 h; remark: listed apart in the source
# Thymidylate synthase [4] = molecular target: Thymidylate synthase (Escherichia coli, UniProt C3SWJ7); assay: Inhibition of Escherichia coli thymidylate synthase
# CCRF-CEM [5] = assay: cells; settings: Homo sapiens, 120 h; remark: listed apart in the source
# Dihydrofolate reductase [6] = molecular target: T1, Dihydrofolate reductase (Escherichia coli, UniProt P0ABQ4)
# T1 sequence (P0ABQ4 whole entry): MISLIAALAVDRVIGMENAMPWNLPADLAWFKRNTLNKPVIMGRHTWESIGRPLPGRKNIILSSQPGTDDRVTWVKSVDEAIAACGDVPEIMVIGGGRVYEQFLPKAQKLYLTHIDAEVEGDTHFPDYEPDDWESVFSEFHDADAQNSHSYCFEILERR
# Description: Inhibition of Escherichia coli DHFR
# [7] = molecular target: T2, Bifunctional dihydrofolate reductase-thymidylate synthase (Toxoplasma gondii, UniProt Q07422); assay: Inhibition of Toxoplasma gondii DHFR
# T2 sequence (Q07422 whole entry): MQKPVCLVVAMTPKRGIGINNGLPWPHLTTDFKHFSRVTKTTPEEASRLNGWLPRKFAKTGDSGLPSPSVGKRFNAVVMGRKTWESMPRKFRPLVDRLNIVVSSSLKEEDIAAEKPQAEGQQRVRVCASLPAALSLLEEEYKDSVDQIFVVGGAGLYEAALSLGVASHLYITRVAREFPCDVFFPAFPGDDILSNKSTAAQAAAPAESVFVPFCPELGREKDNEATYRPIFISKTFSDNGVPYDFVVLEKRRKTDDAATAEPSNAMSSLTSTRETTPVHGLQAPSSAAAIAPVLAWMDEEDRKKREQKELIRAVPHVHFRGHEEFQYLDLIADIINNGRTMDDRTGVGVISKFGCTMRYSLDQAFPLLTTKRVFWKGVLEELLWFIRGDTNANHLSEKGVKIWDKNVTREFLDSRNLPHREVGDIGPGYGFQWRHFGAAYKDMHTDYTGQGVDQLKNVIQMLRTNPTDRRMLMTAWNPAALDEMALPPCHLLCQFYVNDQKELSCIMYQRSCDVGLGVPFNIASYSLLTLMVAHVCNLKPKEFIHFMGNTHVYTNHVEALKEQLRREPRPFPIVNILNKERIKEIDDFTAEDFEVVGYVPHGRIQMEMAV
# Thymidylate synthase [8] = molecular target: Thymidylate synthase (Homo sapiens, UniProt P04818)
# Description: Inhibition of human thymidylate synthase
# CCRF-CEM [9] = assay: cells; settings: Homo sapiens
# Description: Growth inhibition of human CCRF-CEM cells
# [10] = molecular target: T2, Bifunctional dihydrofolate reductase-thymidylate synthase; assay: Inhibition of Toxoplasma gondii thymidylate synthase
# CCRF-CEM [11] = assay: Protection against 40 nM methotrexate-induced growth inhibition in human CCRF-CEM cells assessed as growth at 5 uM relative to control; format: functional; parameters: scale not given: the % may be the effect or the level left
# CCRF-CEM [12] = assay: Protection against 4000 nM N-{4-[(2,4-diamino-5-methyl-4, 7-dihydro-3H-pyrrolo[2,3-d]pyr imidin-6-yl)thio]benzoyl}-L-gl utamic acid-induced growth inhibition in human CCRF-CEM cells assessed as growth at 5 uM relative to control; format: functional; parameters: scale not given: the % may be the effect or the level left
# CCRF-CEM [13] = assay: Protection of drug-induced growth inhibition by 1 uM leucovorin in human CCRF-CEM cells assessed as growth at 20 nM relative to control; format: functional; parameters: scale not given: the % may be the effect or the level left
# CCRF-CEM [14] = assay: Protection of drug-induced growth inhibition by 10 uM leucovorin in human CCRF-CEM cells assessed as growth at 20 nM relative to control; format: functional; parameters: scale not given: the % may be the effect or the level left
# CCRF-CEM [15] = assay: Protection of drug-induced growth inhibition by 0.1 uM leucovorin in human CCRF-CEM cells assessed as growth at 20 nM relative to control; format: functional; parameters: scale not given: the % may be the effect or the level left
# CCRF-CEM [16] = assay: Cell growth in human CCRF-CEM cells at 40 nM relative to control; format: functional
# CCRF-CEM [17] = assay: Cell growth in human CCRF-CEM cells at 20 nM relative to control; format: functional
# Chain of Dihydrofolate reductase (Homo sapiens, UniProt P00374) (P00374 whole entry): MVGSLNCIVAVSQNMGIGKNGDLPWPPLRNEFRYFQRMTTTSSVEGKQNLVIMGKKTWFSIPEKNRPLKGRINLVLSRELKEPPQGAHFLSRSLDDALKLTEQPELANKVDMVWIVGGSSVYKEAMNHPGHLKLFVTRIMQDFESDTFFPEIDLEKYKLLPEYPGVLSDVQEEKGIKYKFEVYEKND
# Chain of Thymidylate synthase (Homo sapiens, UniProt P04818) (P04818 whole entry): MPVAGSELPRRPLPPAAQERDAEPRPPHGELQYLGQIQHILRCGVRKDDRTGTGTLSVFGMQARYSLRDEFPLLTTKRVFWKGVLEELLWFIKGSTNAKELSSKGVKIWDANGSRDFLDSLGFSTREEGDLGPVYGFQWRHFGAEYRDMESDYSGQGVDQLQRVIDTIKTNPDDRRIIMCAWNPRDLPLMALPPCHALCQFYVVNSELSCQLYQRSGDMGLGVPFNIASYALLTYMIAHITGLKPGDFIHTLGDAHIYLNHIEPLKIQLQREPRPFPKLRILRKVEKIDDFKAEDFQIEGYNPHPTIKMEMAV
# Chain of Thymidylate synthase (Escherichia coli, UniProt C3SWJ7) (C3SWJ7 whole entry): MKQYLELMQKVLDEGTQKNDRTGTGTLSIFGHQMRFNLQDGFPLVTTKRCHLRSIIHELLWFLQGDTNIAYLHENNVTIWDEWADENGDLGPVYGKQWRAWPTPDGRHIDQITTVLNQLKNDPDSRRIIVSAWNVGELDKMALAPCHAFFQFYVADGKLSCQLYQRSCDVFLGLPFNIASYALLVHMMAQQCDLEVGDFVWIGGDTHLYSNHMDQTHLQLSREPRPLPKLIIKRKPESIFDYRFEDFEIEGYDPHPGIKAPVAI
smiles,measurement,setting,value
Cc1c(Sc2ccc(C(=O)N[C@@H](CCC(=O)O)C(=O)O)cc2)[nH]c2nc(N)[nH]c(=O)c12,EC50,CCRF-CEM [1],> 20 µM
same,IC50,Dihydrofolate reductase [2],> 240 µM
same,EC50,CCRF-CEM [3],> 20 µM
same,IC50,Thymidylate synthase [4],> 180 µM
same,EC50,CCRF-CEM [5],> 20 µM
same,IC50,Dihydrofolate reductase [6],> 240 µM
same,IC50,[7],2.2 µM
same,IC50,Thymidylate synthase [8],100 µM
same,EC50,CCRF-CEM [9],> 20 µM
same,IC50,[10],3.6 µM
Cc1cn([C@H]2C[C@H](O)[C@@H](CO)O2)c(=O)[nH]c1=O [DOXRIBTIMINE],Activity,CCRF-CEM [11],18%
same,Activity,CCRF-CEM [12],20%
CN(Cc1cnc2nc(N)nc(N)c2n1)c1ccc(C(=O)N[C@@H](CCC(=O)O)C(=O)O)cc1 [METHOTREXATE],Activity,CCRF-CEM [13],96%
same,Activity,CCRF-CEM [14],95%
same,Activity,CCRF-CEM [15],90%
same,Activity,CCRF-CEM [16],12%
same,Activity,CCRF-CEM [17],5%
Cc1nc2ccc(CN(C)c3ccc(C(=O)N[C@@H](CCC(=O)O)C(=O)O)s3)cc2c(=O)[nH]1 [RALTITREXED],IC50,Dihydrofolate reductase [6],23 µM
